Values after ≈ are worked out from the molar mass of the structure shown. Where two headings read alike, the source gives them in different places. Starred links: 1 amine or outer side, 2 acyl side, 3 side chain; linkers in the order of their positions; H or OH if unused. Positions of bridges follow the written chain, without caps; N, C: chain ends. Residues, ends and D or L forms follow the SMILES beside them. Groups on a side chain read outwards from the residue. *: point of attachment. C20 diacid = O=C(O)CCCCCCCCCCCCCCCCCCC(=O)*; γGlu = O=C(O)[C@H](CCC(=O)[*:2])N[*:1]; AEEA = NCCOCCOCC(=O)O
Assay: Assay (IV) determination of solubility
Type: physicochemical
Description: ASSAY (IV)—Determination of Solubility
The polypeptide was dissolved in water at ˜500 nmol/ml and mixed 1:1 with a series of buffers (100 mM glycylglycine pH 3.0, 100 mM glycylglycine pH 4.0, 100 mM glycylglycine pH 5.0, 100 mM bistrispropane pH 6.0, 100 mM bistrispropane pH 6.5, 100 mM bistrispropane pH 7.0, 100 mM bistrispropane pH 7.5, 100 mM bistrispropane pH 8.0). After 18 hours at room temperature the samples were centrifuged and the polypeptide concentration determined by HPLC.

[1] = pH 3, pH 3.0, read-out: Solubility pH 3.0
[2] = pH 4, pH 4.0, read-out: Solubility pH 4.0
[3] = pH 5, pH 5.0, read-out: Solubility pH 5.0
[4] = pH 6, pH 6.0, read-out: Solubility pH 6.0
[5] = pH 6.5, pH 6.5, read-out: Solubility pH 6.5
[6] = pH 7, pH 7.0, read-out: Solubility pH 7.0
[7] = pH 7.5, pH 7.5, read-out: Solubility pH 7.5
[8] = pH 8, pH 8.0, read-out: Solubility pH 8.0

solubility [1]	solubility (pH 4, pH 4.0, 18 hours at room temperature, Table 2, read-out: Solubility pH 4.0)	solubility [2]	solubility [3]	solubility [4]	solubility [5]	solubility (pH 7, pH 7.0, 18 hours at room temperature, Table 3, read-out: Solubility pH 7.0)	solubility (pH 7, pH 7.0, Table 8, read-out: Solubility pH 7.0)	solubility (pH 7, pH 7.0, Table 9, read-out: Solubility pH 7.0)	solubility [6]	solubility (pH 7.5, pH 7.5, Table 9, read-out: Solubility pH 7.5)	solubility [7]	solubility [8]	SMILES
> 200 µM	> 200 µM	> 200 µM	> 200 µM	> 200 µM	163 µM (≈ 788 µg/mL)	> 200 µM	> 200 µM	> 200 µM	> 200 µM	> 200 µM	> 200 µM	> 200 µM	CC[C@H](C)[C@H](NC(=O)[C@@H]1CCCN1C(=O)CNC(=O)[C@H](Cc1ccccc1)NC(=O)[C@H](CC(N)=O)NC(=O)[C@H](CCCCNC(=O)COCCOCCNC(=O)COCCOCCNC(=O)CC[C@H](NC(=O)CCCCCCCCCCCCCCCCCCC(=O)O)C(=O)O)NC(=O)[C@H](CO)NC(=O)[C@H](CO)NC(=O)[C@H](CCCNC(=N)N)NC(=O)[C@@H](NC(=O)[C@H](CC(C)C)NC(=O)[C@H](Cc1ccccc1)NC(=O)[C@H](CCC(=O)O)NC(=O)[C@H](C)NC(=O)[C@H](CC(C)C)NC(=O)[C@H](CCCNC(=N)N)NC(=O)[C@H](CCC(N)=O)NC(=O)[C@@H](NC(=O)[C@H](C)NC(=O)[C@@H]1CSSC[C@H](NC(=O)[C@@H](N)CCCCN)C(=O)N[C@@H](CC(N)=O)C(=O)N[C@@H]([C@@H](C)O)C(=O)N[C@@H](C)C(=O)N[C@@H]([C@@H](C)O)C(=O)N1)[C@@H](C)O)C(C)C)C(=O)N[C@@H](CC(C)C)C(=O)N[C@@H](CO)C(=O)N[C@@H](CCCNC(=N)N)C(=O)N[C@H](C(=O)N[C@@H](CC(N)=O)C(=O)N[C@H](C(=O)NCC(=O)N[C@@H](CO)C(=O)N[C@@H](CCCNC(=N)N)C(=O)N[C@H](C(=O)N[C@@H](Cc1ccc(O)cc1)C(N)=O)[C@@H](C)O)C(C)C)[C@@H](C)O [Example 150, N-epsilon21-[2-(2-{2-[2-(2-{2-[(S)-4-Carboxy-4-(19-carboxyheptadecanoylamino)butyrylamino]ethoxy}ethoxy)acetylamino]ethoxy}ethoxy)acetyl]-[Glu14,Arg18,Lys21,Ser28,Arg29,Arg35]-pramlintide] (H-KCNTATCATQRLAEFLVRSSK([AEEA-AEEA-γGlu-C20 diacid])NFGPILSRTNVGSRTY-NH2; disulfide 2-7)
> 200 µM	–	> 200 µM	> 200 µM	3 µM (≈ 14.4 µg/mL)	1 µM (≈ 4.79 µg/mL)	–	–	–	2 µM (≈ 9.58 µg/mL)	–	3 µM (≈ 14.4 µg/mL)	2 µM (≈ 9.58 µg/mL)	CC[C@H](C)[C@H](NC(=O)[C@H](CCCCNC(=O)COCCOCCNC(=O)COCCOCCNC(=O)CC[C@H](NC(=O)CCCCCCCCCCCCCCCCCCC(=O)O)C(=O)O)NC(=O)CNC(=O)[C@H](Cc1ccccc1)NC(=O)[C@H](CC(N)=O)NC(=O)[C@H](Cc1c[nH]cn1)NC(=O)[C@H](CO)NC(=O)[C@H](CO)NC(=O)[C@H](Cc1c[nH]cn1)NC(=O)[C@H](Cc1c[nH]cn1)NC(=O)[C@H](CC(C)C)NC(=O)[C@H](Cc1ccccc1)NC(=O)[C@H](CC(N)=O)NC(=O)[C@H](C)NC(=O)[C@H](CC(C)C)NC(=O)[C@H](CCCNC(=N)N)NC(=O)[C@H](CCC(N)=O)NC(=O)[C@@H](NC(=O)[C@H](C)NC(=O)[C@@H]1CSSC[C@H](NC(=O)[C@@H](N)CCCCN)C(=O)N[C@@H](CC(N)=O)C(=O)N[C@@H]([C@@H](C)O)C(=O)N[C@@H](C)C(=O)N[C@@H]([C@@H](C)O)C(=O)N1)[C@@H](C)O)C(=O)N[C@@H](CC(C)C)C(=O)N[C@@H](CO)C(=O)N[C@@H](CO)C(=O)N[C@H](C(=O)N[C@@H](CC(N)=O)C(=O)N[C@H](C(=O)NCC(=O)N[C@@H](CO)C(=O)N[C@@H](Cc1c[nH]cn1)C(=O)N[C@H](C(=O)N[C@@H](Cc1ccc(O)cc1)C(N)=O)[C@@H](C)O)C(C)C)[C@@H](C)O [Example 134, N-epsilon25-[2-(2-{2-[2-(2-{2-[(S)-4-Carboxy-4-(19-carboxyheptadecanoylamino)butyrylamino]ethoxy}ethoxy)acetylamino]ethoxy}ethoxy)acetyl]-[His17,His21,Lys25,Ser28,Ser29.His35]-pramlintide] (H-KCNTATCATQRLANFLHHSSHNFGK([AEEA-AEEA-γGlu-C20 diacid])ILSSTNVGSHTY-NH2; disulfide 2-7)

Reference: patent US8722849B2, “Polypeptides” (Novo Nordisk A/S, priority 2011, dated 2014)
